Test results as given in patent US6784208B2, “Method for preventing and treating visceral pain and gastrointestinal disorders” (Warner-Lambert Company, priority 2001, dated 2004).
Where two headings read alike, the source gives them in different places.

Columns and labels:
[1] = test system: LPS-induced rectal hypersensitivity; experiment: LPS-induced rectal hypersensitivity in rats (rectal distension, abdominal contractions); assay type: in vivo, rat; details: for inhibition of the number of abdominal contractions induced by rectal distension: distension at 0.4 ml, LPS treated rats
Procedure: Animals are surgically prepared for electromyography: rats are anaesthetized by intraperitoneal injection of acepromazine (0.6 mg/kg) and ketamine (120 mg/kg). […] Electrodes are exteriorized on the back of the neck and protected by a glass tube attached to the skin. Animals are individually housed in polypropylene cages and kept in a temperature-controlled room (21° C.). Food (UAR pellets, Epinay, France) and water are provided ad libitum.
Electromyographic recordings begin five days after surgery. The electrical activity of abdominal striated muscles is recorded with an electroencephalograph machine (Mini VIII Alvar, Paris, France) using a short time constant (0.03 s) to remove low-frequency signals (<3 Hz) and a paper speed of 3.6 cm/min. Spike bursts are recorded as an index of abdominal contractions.
Distension procedure: Rats are placed in plastic tunnels (6 cm diameter×25 cm long), where they cannot move, escape, or turn around, in order to prevent damage to the balloon. Animals are accustomed to this procedure for four days before rectal distension in order to minimize stress reactions during experiments. The balloon used for distension is an arterial embolectomy catheter (Fogarty, Edwards Laboratories Inc.). Rectal distension is performed by insertion of the balloon (2 mm diameter×2 cm long) into the rectum, at 1 cm from the anus, and catheter is fixed at the base of the tail. It is inflated progressively with tepid water by steps of 0.4 ml, from 0 to 1.2 ml, each step of inflation lasting 5 min. To detect possible leakage, the volume of water introduced in the balloon is checked by complete removal with a syringe at the end of the distension period.
Experimental protocol: Rats are injected i.p. with LPS (1 mg/kg (Escherichia coli, serotype O111:B4) Sigma-Aldrich chemical Co., St Louis, Mo.) or its vehicle, and rectal distension with concomitant electromyographic recording of abdominal contractions is performed 9 and 12 h after this administration. To determine the antinociceptive properties of gabapentin and the compound of formula Ia in hyperalgesia conditions, gabapentin (10 and 30 mg/kg) and the compound of formula Ia (0.01, 0.03 and 0.1 mg/kg) or the vehicle (NaCl 0.9% 0.3 ml/rat) are administered per os 1 h before rectal distension but preceded (12 h) by injection of LPS (1 mg/kg i.p.).
Drugs: All compounds were dissolved in sterile NaCl (0.9% isotonic saline) immediately before use.
Statistics: Statistical analysis of the number of abdominal contractions occurring during each period of rectal distension is performed by one-way ANOVA followed by parametric Student's unpaired t test.

[2] = test system: TNBS-induced chronic visceral allodynia; details: cited from earlier work
[3] = test system: TNBS-induced chronic visceral allodynia; experiment: TNBS-induced chronic visceral allodynia in rats (colonic distension); assay type: in vivo, rat; details: for Inhibition at 1 h (%) of the TNBS-induced decrease in the pain threshold: 1 h before colonic distension, rats
Procedure: In this experimental model of colonic distension in awake rats, previous injection of TNBS into the proximal colon had lowered the visceral pain threshold.
Male Sprague-Dawley rats weighing 340-400 g are used. The animals are housed 3 per cage in a regulated environment (20±1° C., 50±5% humidity, with light 8:00 am to 8:00 pm). At day 0, under anesthesia (ketamine 80 mg/kg ip.; acepromazine 12 mg/kg ip.), the injection of TNBS (50 mg/kg in ethanol 30%), or saline (1.5 ml/kg) for control rats, is performed into the proximal colon wall (1 cm from the cecum). After the surgery, animals are individually housed in polypropylene cages and kept in a regulated environment (20±1° C., 50±5% humidity, with light 8:00 a.m. to 8:00 p.m.) during 7 days. At day 7 after TNBS administration, a balloon (5-6 cm length) is inserted by anus, and kept in position (tip of balloon 5 cm from the anus) by taping the catheter to the base of the tail. Oral administration of gabapentin or the compound of formula Ia is performed 1 h before the colonic distension cycle: the balloon is progressively inflated by steps of 5 mm Hg (0.667 kPa), from 0 to 75 mm Hg, each step of inflation lasting 30 s. Each cycle of colonic distension is controlled by a standard barostat. The threshold (mm Hg) corresponds to the pressure which produced the first abdominal contraction, and the cycle of distension is then discontinued. The colonic threshold is determined after performance of four cycles of distension on the same animal.
Data is analyzed by comparing test compound-treated groups with a TNBS only-treated group and the control group. Mean and SEM are calculated for each group. The antiallodynic activity of each oral dose of the test compound is calculated as follows: [formula]
where A=mean threshold of the test compound-treated group,
T=mean threshold of the TNBS only-treated group,
C=mean threshold of the control group.
The results measured in the test compound-treated groups are expressed in % inhibition of the TNBS-induced decrease in the pain threshold. Statistical significance between each group was determined by using a one-way ANOVA followed by Student's unpaired t-test; differences were considered statistically significant at p<0.05.

Compound: 1-(aminomethyl)cyclohexane acetic acid [gabapentin]
- inhibition of the number of abdominal contractions induced by rectal distension ([1]; 10 mg/kg p.o., not significant): 24.9%
- inhibition of the number of abdominal contractions induced by rectal distension ([1]; 30 mg/kg p.o.): 85.3%
- effect on TNBS-induced colonic hypersensitivity ([2]; model of chronic allodynia (Diop et al. 1998)): suppress
- effect on colonic threshold ([2]; s.c. route, control conditions): not to modify the colonic threshold
- Inhibition at 1 h (%) of the TNBS-induced decrease in the pain threshold ([3]; 100 mg/kg p.o.): 14.7 ± 5.1%
- Inhibition at 1 h (%) of the TNBS-induced decrease in the pain threshold ([3]; 300 mg/kg p.o.): 48.6 ± 13.3%
- Inhibition at 1 h (%) of the TNBS-induced decrease in the pain threshold ([3]; 500 mg/kg p.o.): 64.9 ± 10.5%
- Inhibition at 1 h (%) of the TNBS-induced decrease in the pain threshold ([3]; 1000 mg/kg p.o.): 75.2 ± 6.1%
- median effective dose (ED50), antiallodynic activity ([3]; p.o., TNBS-treated rats): 321 mg/kg

Compound: CN1CC[C@]23c4c5ccc(O)c4O[C@H]2[C@@H](O)C=C[C@H]3[C@H]1C5 [morphine]
- effect on colonic threshold ([2]; s.c., both TNBS-treated animals and controls): increased the colonic threshold

Compound: NC[C@]1(CC(=O)O)C[C@H]2CC[C@H]2C1 [compound of formula Ia, (1α,3α,5α)-3-aminomethyl-bicyclo[3.2.0]heptane-3-acetic acid]
- effect on the number of abdominal contractions induced by rectal distension ([1]; 0.01, 0.03 and 0.1 mg/kg po, distension at 0.4 ml after LPS treatment (FIG. 1)): inhibits in a dose-related manner
- fold more potent than gabapentin ([1]; LPS-induced rectal hypersensitivity model, p.o.): about 500 fold
- ED50 ([1]; Rattus norvegicus, po, distension at 0.4 ml after LPS treatment, read-out: ED50, inhibition of abdominal contractions induced by rectal distension): 0.037 mg/kg
- Inhibition at 1 h (%) of the TNBS-induced decrease in the pain threshold ([3]; 3 mg/kg p.o.): 21.7 ± 3.0%
- Inhibition at 1 h (%) of the TNBS-induced decrease in the pain threshold ([3]; 10 mg/kg p.o.): 34.2 ± 5.7%
- Inhibition at 1 h (%) of the TNBS-induced decrease in the pain threshold ([3]; 30 mg/kg p.o.): 58.8 ± 6.2%
- Inhibition at 1 h (%) of the TNBS-induced decrease in the pain threshold ([3]; 60 mg/kg p.o.): 90.4 ± 9.8%
- ED50 ([3]; Rattus norvegicus, po, TNBS-treated rats, read-out: median effective dose (ED50), antiallodynic activity): 14.4 mg/kg
